Assay results reported in patent publication US6211372A, “Pharmaceutical compositions and methods for use” (priority 1999, dated 2001).
pEC50: −log10 of the molar value.

Test system: dopamine release
Assay: Dopamine release (receptor activation/inhibition)
Type: biochemical
Conditions: for Emax (dopamine release): amount released relative to (S)-(-)-nicotine or tetramethylammonium ion (TMA); for pEC50: activation of dopamine release
Description: Dopamine release was measured using the techniques described in U.S. Pat. No. 5,597,919 to Dull et al. Release is expressed as a percentage of release obtained with a concentration of (S)-(-)-nicotine resulting in maximal effects. Reported EC50 values are expressed in nM, and Emax values represent the amount released relative to (S)-(-)-nicotine or tetramethylammonium ion (TMA), on a percentage basis.
Reported IC50 values are expressed in nM and represent the concentration resulting in 50% inhibition of agonist induced receptor activation. Emax values represent the amount released relative to (S)-(-)-nicotine on a percentage basis.

| Compound | Emax (dopamine release) [%] | pEC50 |
| --- | --- | --- |
| c1cncc(C2C3CC4CC(C3)CN2C4)c1 (stereo not drawn) [Sample No. 1, 1-aza-2-(3-pyridyl)-tricyclo[3.3.1.1^3,7]decane] | 0 |  |
| Brc1cncc(C2C3CC4CC(C3)CN2C4)c1 (stereo not drawn) [Sample No. 2, 1-aza-2-[5-bromo(3-pyridyl)]tricyclo[3.3.1.1^3,7]decane] | 0 | < 4.00 |
| Cl.Cl.Cl.Nc1cncc(C2C3CC4CC(C3)CN2C4)c1 (stereo not drawn) [Sample No. 3, 1-aza-2-[5-amino-(3-pyridyl)]tricyclo[3.3.1.1^3,7]decane trihydrochloride] | 0 | < 4.00 |
| CCOc1cncc(C2C3CC4CC(C3)CN2C4)c1 (stereo not drawn) [Sample No. 4, 1-aza-2-[5-ethoxy-(3-pyridyl)]-tricyclo-[3.3.1.1^3,7]decane] | 0 | < 4.00 |
| CC(C)Oc1cncc(C2C3CC4CC(C3)CN2C4)c1 (stereo not drawn) [Sample No. 5, 1-aza-2-[5-isopropoxy-(3-pyridyl)]tricyclo[3.3.1.1^3,7]decane] | 0 | < 4.00 |
